Patent publication US5053070A, “Pyrimidine derivatives, preparation processes thereof, herbicide containing the same, and herbicidal compositions containing the same along with other active ingredient” (Mitsui Toatsu Chemicals, Incorporated, priority 1988, dated 1991)

Tests used:
Type in all cases: in vivo
redroot pigweed [1] = experiment: Upland foliar application test by mixed formulations (Test 7); conditions: Amaranthus retroflexus, 720 h, applied alone, 30th day, read-out: Herbicidal effects (%) Redrood pigweed Ea; for pest or weed control at 1000 g/ha: 1 kg/ha; for pest or weed control at 300 g/ha: 0.3 kg/ha
How it was run: (§1)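 Foliar spray of two-compound mixed emulsion, diluted with water, at 5 l per are via ULV sprayer onto weeds at 2–3 leaf stage in upland soil pots, greenhouse. Effect observed 30 days after spraying. Measured mixture activity (Ea) compared with Colby expected value (Ec) derived from single-ingredient growth inhibition rates.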

johnsongrass [2] = experiment: Upland foliar application test by mixed formulations, concentration gradient (Test 8); conditions: Sorghum halepense, 960 h, applied alone, 40th day, read-out: Herbicidal effects Johnsongrass Ea; for pest or weed control at 100 g/ha: 1 g/a; for pest or weed control at 200 g/ha: 2 g/a
Description: (§2) Resin-made 1/10,000-are pots were filled with the soil of an upland field. Redroot pigweed and johnsongrass were separately seeded and were allowed to germinate in a green house. When each plant grew to the stage of 2-3 leaves, emulsions formulated with concentration gradient from predetermined amounts of two test compounds of different kinds in a similar manner to the method described in Formulation Example 16 was diluted with water to a predetermined dilution rate and then sprayed at an application rate equal to 5 l per are onto the foliage of each plant by means of a pressure-operated ULV (ultra low volume) sprayer. Influence to the weeds were observed on the 40th day after the spray of the herbicides. The results are shown in Table 9, In the table, Ea have the same meanings as in Test 7, and Ea>Ec indicates the existence of synergistic action while Ea<Ec indicates the existence of antagonistic action.

redroot pigweed [3] = experiment: as above; conditions: Amaranthus retroflexus, 960 h, applied alone, 40th day, read-out: Herbicidal effects Redrood pigweed Ea; for pest or weed control at 100 g/ha: 1 g/a; for pest or weed control at 200 g/ha: 2 g/a
Description: as §2

johnsongrass [4] = experiment: Upland foliar application test by mixed formulations (Test 7); conditions: Sorghum halepense, 720 h, applied alone, 30th day, read-out: Herbicidal effects (%) Johnsongrass Ea; for pest or weed control at 300 g/ha: 0.3 kg/ha; for pest or weed control at 1000 g/ha: 1 kg/ha
How it was run: as §1

COc1cc(OC)nc(Oc2ccccc2C=NOCc2ccccc2)n1 [Compound No. 15]
pest or weed control at 1000 g/ha (redroot pigweed [1]): 50%

C#CCON=Cc1ccccc1Oc1nc(OC)cc(OC)n1 [Compound No. 13, 0-(2-propynyl)-2-(4,6-dimethoxy-2-pyrimidinyloxy)benzaldoxime]
pest or weed control at 100 g/ha (johnsongrass [2]): 30% | pest or weed control at 200 g/ha (johnsongrass [2]): 50% | pest or weed control at 100 g/ha (redroot pigweed [3]): 20% | pest or weed control at 200 g/ha (redroot pigweed [3]): 40% | pest or weed control at 1000 g/ha (redroot pigweed [1]): 70%

COc1cc(OC)nc(Oc2ccccc2C=NOCC=Cc2cccc(C)c2)n1 [Compound No. 34, 0-(3-methylcinnamyl)-2-(4,6-dimethoxy-2-pyrimidinyloxy)benzaldoxime]
pest or weed control at 300 g/ha (johnsongrass [4]): 30% | pest or weed control at 300 g/ha (redroot pigweed [1]): 30%

COc1cc(OC)nc(Oc2ccccc2C=NOC(C)C)n1 [compound 6]
pest or weed control at 1000 g/ha (johnsongrass [4]): 30% | pest or weed control at 1000 g/ha (redroot pigweed [1]): 50%

COc1cc(OC)nc(Oc2ccccc2C=NOCC=Cc2ccc(Cl)cc2Cl)n1 [compound 30]
pest or weed control at 300 g/ha (johnsongrass [4]): 10% | pest or weed control at 300 g/ha (redroot pigweed [1]): 40%

COc1cc(OC)nc(Oc2ccccc2C=NOC2CCCCC2)n1 [Compound No. 3]
pest or weed control at 1000 g/ha (johnsongrass [4]): 40%

COc1cc(OC)nc(Oc2ccccc2C=NOCC=Cc2ccc(Cl)cc2)n1 [Compound No. 28]
pest or weed control at 300 g/ha (johnsongrass [4]): 30% | pest or weed control at 300 g/ha (redroot pigweed [1]): 50%

COc1cc(OC)nc(Oc2ccccc2C=NOCC=C(C)C)n1 [Compound No. 7]
pest or weed control at 100 g/ha (johnsongrass [2]): 10% | pest or weed control at 200 g/ha (johnsongrass [2]): 20% | pest or weed control at 100 g/ha (redroot pigweed [3]): 10% | pest or weed control at 200 g/ha (redroot pigweed [3]): 50% | pest or weed control at 300 g/ha (johnsongrass [4]): 40% | pest or weed control at 300 g/ha (redroot pigweed [1]): 30%

COc1cc(OC)nc(Oc2ccccc2C=NOCC=Cc2ccccc2Cl)n1 [Compound No. 27]
pest or weed control at 300 g/ha (johnsongrass [4]): 30% | pest or weed control at 300 g/ha (redroot pigweed [1]): 50%

COc1cc(OC)nc(Oc2ccccc2C=NOCC#Cc2ccccc2)n1 [compound 42]
pest or weed control at 300 g/ha (johnsongrass [4]): 50% | pest or weed control at 300 g/ha (redroot pigweed [1]): 50%

COc1cc(OC)nc(Oc2ccccc2C=NOCC=Cc2ccccc2)n1 [Compound No. 9]
pest or weed control at 100 g/ha (johnsongrass [2]): 10% | pest or weed control at 200 g/ha (johnsongrass [2]): 20% | pest or weed control at 100 g/ha (redroot pigweed [3]): 10% | pest or weed control at 200 g/ha (redroot pigweed [3]): 30% | pest or weed control at 300 g/ha (redroot pigweed [1]): 50%

COc1cc(OC)nc(Oc2ccccc2C=NOCc2cccc(C)c2)n1 [compound 20]
pest or weed control at 300 g/ha (redroot pigweed [1]): 30%

CC#CCON=Cc1ccccc1Oc1nc(OC)cc(OC)n1 [compound 10]
pest or weed control at 1000 g/ha (johnsongrass [4]): 20% | pest or weed control at 1000 g/ha (redroot pigweed [1]): 10%

COc1cc(OC)nc(Oc2ccccc2C=NO)n1 [Compound No. 24, 2-(4,6-dimethoxy-2-pyrimidinyloxy)-benzaloxime]
pest or weed control at 300 g/ha (johnsongrass [4]): 20% | pest or weed control at 300 g/ha (redroot pigweed [1]): 50%

COc1cc(OC)nc(Oc2ccccc2C=NOCC=CCl)n1 [compound 11]
pest or weed control at 1000 g/ha (redroot pigweed [1]): 30%

C=C(Cl)CON=Cc1ccccc1Oc1nc(OC)cc(OC)n1 [Compound No. 14]
pest or weed control at 300 g/ha (johnsongrass [4]): 30% | pest or weed control at 300 g/ha (redroot pigweed [1]): 85%

COc1cc(OC)nc(Oc2ccccc2C=NOCC=Cc2ccccc2Br)n1 [compound 40]
pest or weed control at 300 g/ha (redroot pigweed [1]): 20%

COc1cc(OC)nc(Oc2ccccc2C=NOCC=Cc2ccccc2C)n1 [Compound No. 39]
pest or weed control at 100 g/ha (johnsongrass [2]): 10% | pest or weed control at 200 g/ha (johnsongrass [2]): 20% | pest or weed control at 100 g/ha (redroot pigweed [3]): 10% | pest or weed control at 200 g/ha (redroot pigweed [3]): 30% | pest or weed control at 300 g/ha (johnsongrass [4]): 50% | pest or weed control at 300 g/ha (redroot pigweed [1]): 50%

COc1cccc(C=CCON=Cc2ccccc2Oc2nc(OC)cc(OC)n2)c1 [compound 38]
pest or weed control at 300 g/ha (johnsongrass [4]): 40% | pest or weed control at 300 g/ha (redroot pigweed [1]): 50%

COc1cc(OC)nc(Oc2ccccc2C=NOCC=Cc2ccccc2C(F)(F)F)n1 [compound 32]
pest or weed control at 1000 g/ha (johnsongrass [4]): 30% | pest or weed control at 1000 g/ha (redroot pigweed [1]): 50%
